The target in data set [1] is native α7 nAChR in rat brain membranes (Rattus norvegicus, UniProt Q05941). As to the kind of experiment: biochemical. The data set is classed as binding. The note with it: for inhibition at 10 µM: read-out: Percent binding/inhibition, α7 receptor (selectivity study).
A further data set deals with neuronal α4β2 nAChRs (Rattus norvegicus, UniProt P09483+P12390). As to the kind of experiment: biochemical. The settings on record: read-out: Percent binding/inhibition, neuronal α4β2.
The target in a further data set is muscle-type nAChR (Homo sapiens, UniProt P02708+P07510+Q07001). The class given is binding.
In a further data set the target is T1, human 5HT3 receptor (Homo sapiens, UniProt P46098).
T1 sequence (P46098 24-478): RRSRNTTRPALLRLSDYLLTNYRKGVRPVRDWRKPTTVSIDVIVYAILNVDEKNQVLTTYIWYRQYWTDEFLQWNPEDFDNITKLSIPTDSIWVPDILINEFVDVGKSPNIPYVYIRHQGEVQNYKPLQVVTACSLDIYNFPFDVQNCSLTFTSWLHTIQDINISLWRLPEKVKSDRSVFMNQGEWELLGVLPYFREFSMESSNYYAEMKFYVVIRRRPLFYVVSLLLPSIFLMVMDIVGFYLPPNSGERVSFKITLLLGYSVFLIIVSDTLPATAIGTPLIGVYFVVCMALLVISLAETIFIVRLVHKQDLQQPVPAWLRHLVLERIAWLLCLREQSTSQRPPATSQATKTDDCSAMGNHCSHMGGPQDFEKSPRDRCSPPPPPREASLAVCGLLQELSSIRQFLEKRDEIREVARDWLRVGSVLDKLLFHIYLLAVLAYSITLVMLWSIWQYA
The data set is described as follows: biochemical. The note with it: read-out: Percent binding/inhibition, 5HT3 receptor.

For a further data set, the target named is human α7 nAChR (Homo sapiens, UniProt P36544). The data set is described as follows: cell-based.
Data set [2] concerns DFP-induced seizure-like behaviors. The note with it: mouse, in vivo.
The conditions of data set [3]: male, C57Bl/6, mouse, in vivo, ip, 10 mg/kg.

Data on five compounds can be found in article PMC3000800 (Bioorganic & medicinal chemistry letters, 2010).

Sequence of native α7 nAChR in rat brain membranes (Q05941 23-502): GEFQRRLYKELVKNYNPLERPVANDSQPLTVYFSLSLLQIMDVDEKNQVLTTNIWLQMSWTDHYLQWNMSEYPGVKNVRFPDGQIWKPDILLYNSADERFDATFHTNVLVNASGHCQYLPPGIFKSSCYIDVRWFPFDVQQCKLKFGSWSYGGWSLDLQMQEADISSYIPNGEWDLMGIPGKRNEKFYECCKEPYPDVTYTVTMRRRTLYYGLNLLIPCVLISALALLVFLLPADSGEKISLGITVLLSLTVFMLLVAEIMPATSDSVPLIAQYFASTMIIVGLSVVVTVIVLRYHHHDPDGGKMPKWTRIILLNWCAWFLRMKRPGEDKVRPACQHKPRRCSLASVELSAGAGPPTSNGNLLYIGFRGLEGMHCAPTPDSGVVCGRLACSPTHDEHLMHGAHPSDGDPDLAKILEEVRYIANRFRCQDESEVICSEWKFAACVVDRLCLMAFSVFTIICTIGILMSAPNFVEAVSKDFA
Sequence of muscle-type nAChR (P02708 21-457): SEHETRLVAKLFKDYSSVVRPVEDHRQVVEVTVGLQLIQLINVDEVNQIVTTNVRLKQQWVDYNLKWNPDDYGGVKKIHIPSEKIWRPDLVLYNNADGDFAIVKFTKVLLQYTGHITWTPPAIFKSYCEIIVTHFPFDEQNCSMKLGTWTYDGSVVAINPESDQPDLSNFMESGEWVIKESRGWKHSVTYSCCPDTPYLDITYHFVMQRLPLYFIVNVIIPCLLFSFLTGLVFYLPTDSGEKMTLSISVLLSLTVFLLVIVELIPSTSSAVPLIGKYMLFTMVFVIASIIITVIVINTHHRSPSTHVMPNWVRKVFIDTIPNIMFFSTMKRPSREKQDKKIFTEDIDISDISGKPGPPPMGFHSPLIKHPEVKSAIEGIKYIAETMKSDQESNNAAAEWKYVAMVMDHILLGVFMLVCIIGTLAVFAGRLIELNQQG
Sequence of muscle-type nAChR (P07510 23-517): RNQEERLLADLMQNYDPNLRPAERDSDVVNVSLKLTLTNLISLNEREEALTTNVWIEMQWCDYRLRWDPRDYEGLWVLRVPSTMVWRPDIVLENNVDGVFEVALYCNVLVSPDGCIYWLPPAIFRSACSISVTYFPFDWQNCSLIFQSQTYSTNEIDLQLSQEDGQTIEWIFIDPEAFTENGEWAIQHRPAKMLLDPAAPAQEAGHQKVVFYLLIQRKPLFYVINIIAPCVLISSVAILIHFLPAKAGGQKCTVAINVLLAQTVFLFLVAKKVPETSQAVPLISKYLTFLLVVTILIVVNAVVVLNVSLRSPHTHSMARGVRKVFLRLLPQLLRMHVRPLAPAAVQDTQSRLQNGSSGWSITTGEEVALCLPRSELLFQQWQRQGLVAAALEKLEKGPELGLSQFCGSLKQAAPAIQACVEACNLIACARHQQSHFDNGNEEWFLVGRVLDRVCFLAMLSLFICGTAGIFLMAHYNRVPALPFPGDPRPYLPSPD
Sequence of muscle-type nAChR (P11230 24-501, further chain): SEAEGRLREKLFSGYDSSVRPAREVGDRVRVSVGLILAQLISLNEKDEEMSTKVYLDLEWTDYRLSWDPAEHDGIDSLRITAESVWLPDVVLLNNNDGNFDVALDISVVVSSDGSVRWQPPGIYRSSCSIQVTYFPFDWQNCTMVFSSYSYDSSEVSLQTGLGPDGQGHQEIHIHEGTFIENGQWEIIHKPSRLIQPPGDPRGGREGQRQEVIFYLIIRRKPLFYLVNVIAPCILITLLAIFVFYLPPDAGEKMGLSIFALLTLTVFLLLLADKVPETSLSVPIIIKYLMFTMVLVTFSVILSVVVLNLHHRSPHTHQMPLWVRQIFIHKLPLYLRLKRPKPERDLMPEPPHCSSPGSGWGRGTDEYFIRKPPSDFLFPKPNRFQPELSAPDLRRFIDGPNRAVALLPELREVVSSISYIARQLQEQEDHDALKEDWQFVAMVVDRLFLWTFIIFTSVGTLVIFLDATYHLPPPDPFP
Sequence of muscle-type nAChR (Q07001 22-517): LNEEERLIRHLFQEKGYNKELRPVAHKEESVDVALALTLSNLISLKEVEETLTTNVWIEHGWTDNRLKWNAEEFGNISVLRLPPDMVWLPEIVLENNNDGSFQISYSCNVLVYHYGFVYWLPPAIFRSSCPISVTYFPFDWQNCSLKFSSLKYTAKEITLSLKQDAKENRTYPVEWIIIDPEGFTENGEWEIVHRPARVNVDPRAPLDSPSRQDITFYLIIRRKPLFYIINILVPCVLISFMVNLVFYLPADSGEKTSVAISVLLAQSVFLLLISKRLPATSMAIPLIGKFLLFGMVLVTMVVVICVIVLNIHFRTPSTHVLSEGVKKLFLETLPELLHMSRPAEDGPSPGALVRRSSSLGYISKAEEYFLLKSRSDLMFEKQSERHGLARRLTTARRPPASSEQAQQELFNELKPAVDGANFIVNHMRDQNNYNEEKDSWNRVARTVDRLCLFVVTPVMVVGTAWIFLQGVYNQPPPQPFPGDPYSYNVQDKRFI
Sequence of human α7 nAChR (P36544 23-502): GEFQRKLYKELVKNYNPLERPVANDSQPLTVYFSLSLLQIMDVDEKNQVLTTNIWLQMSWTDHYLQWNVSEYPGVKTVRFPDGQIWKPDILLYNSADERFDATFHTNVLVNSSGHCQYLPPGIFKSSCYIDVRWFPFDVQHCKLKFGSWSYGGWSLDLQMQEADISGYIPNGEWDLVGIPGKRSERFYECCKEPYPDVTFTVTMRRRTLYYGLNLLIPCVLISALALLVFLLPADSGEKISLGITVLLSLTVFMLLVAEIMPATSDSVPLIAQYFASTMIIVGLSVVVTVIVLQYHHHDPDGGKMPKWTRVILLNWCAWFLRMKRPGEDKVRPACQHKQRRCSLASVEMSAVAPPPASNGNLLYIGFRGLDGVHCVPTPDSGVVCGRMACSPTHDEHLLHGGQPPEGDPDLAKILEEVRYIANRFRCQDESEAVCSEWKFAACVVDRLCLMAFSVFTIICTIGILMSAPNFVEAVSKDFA
Sequence of neuronal α4β2 nAChRs (P09483 31-630): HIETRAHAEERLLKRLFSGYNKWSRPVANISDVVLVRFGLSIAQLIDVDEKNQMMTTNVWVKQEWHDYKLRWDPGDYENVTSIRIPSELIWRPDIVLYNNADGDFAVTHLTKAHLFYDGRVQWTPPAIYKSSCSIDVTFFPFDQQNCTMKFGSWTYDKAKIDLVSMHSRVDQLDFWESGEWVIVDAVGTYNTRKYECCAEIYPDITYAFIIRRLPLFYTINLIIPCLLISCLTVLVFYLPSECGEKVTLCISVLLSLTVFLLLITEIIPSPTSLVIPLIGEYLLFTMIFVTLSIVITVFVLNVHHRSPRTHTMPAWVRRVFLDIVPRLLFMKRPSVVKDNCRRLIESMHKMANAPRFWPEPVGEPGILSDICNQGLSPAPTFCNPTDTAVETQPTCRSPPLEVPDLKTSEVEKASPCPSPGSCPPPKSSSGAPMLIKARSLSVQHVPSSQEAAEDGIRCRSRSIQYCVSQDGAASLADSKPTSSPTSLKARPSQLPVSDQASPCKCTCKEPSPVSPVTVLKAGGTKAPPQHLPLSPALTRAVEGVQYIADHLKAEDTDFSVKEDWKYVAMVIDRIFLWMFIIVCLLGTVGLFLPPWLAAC
Sequence of neuronal α4β2 nAChRs (P12390 25-500): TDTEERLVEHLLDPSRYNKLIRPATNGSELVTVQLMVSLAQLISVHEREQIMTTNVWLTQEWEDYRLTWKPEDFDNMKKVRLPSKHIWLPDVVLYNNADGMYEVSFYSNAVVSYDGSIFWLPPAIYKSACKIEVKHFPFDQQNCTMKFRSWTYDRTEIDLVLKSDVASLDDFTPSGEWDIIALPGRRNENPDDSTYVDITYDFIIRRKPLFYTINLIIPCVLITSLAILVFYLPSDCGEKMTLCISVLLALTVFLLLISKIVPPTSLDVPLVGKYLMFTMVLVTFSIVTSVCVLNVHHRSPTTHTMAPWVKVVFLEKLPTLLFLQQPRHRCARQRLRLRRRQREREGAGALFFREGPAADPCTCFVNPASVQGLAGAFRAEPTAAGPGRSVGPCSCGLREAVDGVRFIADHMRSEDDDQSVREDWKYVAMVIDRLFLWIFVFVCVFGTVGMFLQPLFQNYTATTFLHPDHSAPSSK

As for `CCCc1c(C(=O)NC2CCN(C)CC2)cnn1-c1ccccc1` [8h], the “binding affinity to the α7 nAChR (in words)” value in data set [1] is “completely abolished the binding affinity”.
With `CCCc1c(C(=O)NC2CCNCC2)cnn1-c1ccccc1` [8i], the “binding affinity to the α7 nAChR (in words)” value in data set [1] was “completely abolished the binding affinity”.
As to `O=C(NCC1CCN(Cc2ccccc2)CC1)c1cn(Cc2cccc(Cl)c2)nn1` [compound 7], the inhibition at 10 µM is 82.5% in data set [1], 18.8% on neuronal α4β2 nAChRs and 8.4% at human 5HT3 receptor. Moreover, the “binding to the muscle-type nAChR” value on muscle-type nAChR is given as “no detectable binding”.
For `CN(CC1CCN(Cc2ccccc2)CC1)C(=O)c1cn(Cc2ccccc2Cl)nn1` [compound 7i], at human α7 nAChR, the IC50 is 3.8 µM. In data set [2], the Normalized % neuroprotection was 93.4%, the Normalized % seizure is given as 6.6% and the “Seizure score (mean ± SD)” value was 0.6 ± 1.3.
In the case of `CCCc1c(C(=O)NC2CCN(Cc3ccccc3)CC2)cnn1-c1ccccc1` [compound 8], the IC50 in data set [1] was determined as 2.9 µM; on human α7 nAChR it was 18.9 µM. Besides, the inhibition at 10 µM came to 82.5% in data set [1], 1.3% at neuronal α4β2 nAChRs and 14.3% on human 5HT3 receptor. Further, the “binding to the muscle-type nAChR” value at muscle-type nAChR is reported as “no detectable binding”. This compound also returned a Normalized % neuroprotection in data set [2] of 91.2%. The compound further returned a Normalized % seizure in data set [2] of 8.8%. Further, in data set [2], the “Seizure score (mean ± SD)” value was found to be 0.8 ± 1.3. The concentration in brain in data set [3] is 9 µM.

One may read the IC50 as the point on the concentration scale where inhibition reaches its midpoint.
